Experimental data reported in patent US11613538B2, “Method of inhibiting or reducing a viral infection” (PTC Therapeutics, Inc., priority 2009, dated 2023).
“Also recorded” adds a separate entry of the source.

Key:
HT1080 xenografts = assay: HT1080 xenograft tumor growth in male athymic nude mice; type: in vivo; details: study #24a; 10 mg/kg QD; in words
From the text: Experimental Design. HT1080 cells (5×10^6 cells/mouse) were implanted subcutaneously in male athymic nude mice. […] For comparison, Compound #10 was included in this study.

[1] = tested on: hypoxia-induced VEGF production in HeLa cells; assay: cells; type: cell-based, human; details: Homo sapiens, HeLa
Caki-1 cells = assay: Caki-1 renal cell carcinoma xenograft (VHL-positive), tumor volume; type: in vivo, mice; details: for Median time for tumors to reach 1000 mm^3: Compound #10 10 mg/kg QD PO; for Median time for tumors to reach 1000 mm^3 / Tumors smaller than those in vehicle-treated mice: sunitinib 75 mg/kg QD PO, rapamycin 15 mg/kg PO; for Tumors smaller than those in vehicle-treated mice: Day 35, Compound #10 10 mg/kg QD PO
Procedure: The Caki-1 cell line expresses the von Hippel-Lindau (VHL) protein which acts as a tumor suppressor by promoting the rapid degradation of HIF-1α (hypoxia-inducible factor 1α) under normoxia. Under hypoxic conditions, HIF-1α is stabilized and activated by the inability of VHL to act resulting in increased transcription of VEGF that is responsible for the high vascularization of RCC (see Turcotte et al, 2003, Zimmer et al, 2004).
(§1) A total of 100 mice were injected, of which 60 were used in the study.
Groups were taken off study when the mean tumor volume in a group was 1300 mm^3 or more. Vehicle-treatment started on Day 0 and continued through Day 35. Compound #10-treatment started on Day 0 and continued through Day 52.
(§2) Tumors were measured twice per week using digital calipers.
[…] The median values were reported.

[2] = mouse, in vivo
[3] = 786-O xenograft study: body weight and clinical observations; details: 786-O study
[4] = Caki-1 xenograft study: body weight and clinical observations; type: in vivo, mice; details: Caki-1 study
From the text: Body Weight: The mice were weighed once per week.

786-O cells = assay: 786-O renal cell carcinoma xenograft (VHL-negative), tumor volume; type: in vivo, mice; details: for Median time for tumors to reach 1000 mm^3: Compound #10 10 mg/kg QD PO, time on study used if not reached; for Median time for tumors to reach 1000 mm^3 / Tumors smaller than those in vehicle-treated mice: sunitinib 75 mg/kg QD PO, rapamycin 15 mg/kg PO; for Tumors smaller than those in vehicle-treated mice: Day 57, Compound #10 10 mg/kg QD PO
Procedure: Both sunitinib and rapamycin are used clinically for treatment of renal cancer.
as §1
Groups were taken off study when the mean tumor volume in a group was 1300 mm^3 or more. Vehicle-treatment started on Day 0 and continued through Day 57. Compound #10-treatment started on Day 0 and continued through Day 88.
as §2
The time to progression to reach a tumor volume 1000 mm^3 was calculated for each mouse. The median values were reported.

[5] = tested on: VEGF production in tumor cells; assay: VEGF production in tumor cells (data not shown); type: cell-based; details: in words
From the text: In addition to its effects on pathological VEGF production, a Compound provided herein provokes a late GI/early S-Phase cell cycle delay, i.e., between the late resting or pre-DNA synthesis phase, and the early DNA synthesis phase in those tumor cell lines in which VEGF generation is decreased by the Compound. See Section 8.3. […] The cell cycle delay and inhibition of pathological VEGF protein production occur in concert, linking these phenotypes in inflammation, pathological angiogenesis and tumor growth. […] Thus, these experiments indicate that the effects of the Compound on the tumor cell cycle occur in parallel with its actions on pathological VEGF production in tumors.

O=C(Oc1ccc(Cl)cc1)N1CCc2c([nH]c3ccc(Cl)cc23)[C@H]1c1ccc(OCC[C@H](O)CO)cc1 [Compound 1330]
Growth of HT1080 tumors in vivo (FIG. 4) (HT1080 xenografts): overlapped with the growth of tumors in mice treated with 0.5% HPMC vehicle | EC50 [1]: > 1000 nM

CO[C@H]1C[C@@H]2CC[C@@H](C)[C@@](O)(O2)C(=O)C(=O)N2CCCC[C@H]2C(=O)O[C@H]([C@H](C)C[C@@H]2CC[C@@H](O)[C@H](OC)C2)CC(=O)[C@H](C)/C=C(\C)[C@@H](O)[C@@H](OC)C(=O)[C@H](C)C[C@H](C)/C=C/C=C/C=C/1C [rapamycin]
Median time for tumors to reach 1000 mm^3 (Caki-1 cells): 43 days | Tumors smaller than those in vehicle-treated mice (Caki-1 cells): 60% | Tumor size (mean±SD) (Caki-1 cells; Day 63, 15 mg/kg PO): 1689±1081 mm^3 | Mice of the treatment group that had died or were sacrificed due to sickness [2]: 1 of the 10 mice | Body weight loss ([3]; Day 7): 2.4% | Body weight loss ([3]; Day 14): 2.8% | Survival of treated mice ([3]; all mice, in words): survived until sacrificed | Body weight change from initial body weight ([3]; in words): transiently lost weight | Body weight loss ([4]; Day 8): 4.3% | Body weight loss ([4]; Day 14): 5.8% | Mice of the treatment group that had died ([4]; by Day 65): 6 of the 10 mice | Body weight change from initial body weight ([4]; in words): transiently lost weight | Individual mice found dead or sacrificed ([4]; in words): found dead on Day 14; also recorded: found dead on Day 62; also recorded: found dead on Day 63 | Median time for tumors to reach 1000 mm^3 (786-O cells): 87 days | Tumors smaller than those in vehicle-treated mice (786-O cells): 49% | Tumor size (mean±SD) (786-O cells; Day 93, 15 mg/kg PO): 1715±393 mm^3

CCN(CC)CCNC(=O)c1c(C)[nH]c(/C=C2\C(=O)Nc3ccc(F)cc32)c1C [sunitinib]
Median time for tumors to reach 1000 mm^3 (Caki-1 cells): 66 days | Tumors smaller than those in vehicle-treated mice (Caki-1 cells): 66% | Tumor size (mean±SD) (Caki-1 cells; Day 98, 75 mg/kg QD, PO): 1494±1150 mm^3 | Mice of the treatment group that had died or were sacrificed due to sickness [2]: 1 of the 10 mice | Survival of treated mice ([3]; all mice, in words): survived until sacrificed | Clinical observation: skin ([3]; from Day 7 onward, all mice, in words): yellow-tinged skin | Body weight change from initial body weight ([3]; in words): transiently lost weight | Clinical observation: skin ([4]; from Day 8 onward, all mice, in words): yellow-tinged skin | Body weight change from initial body weight ([4]; in words): transiently lost weight | Individual mice found dead or sacrificed ([4]; in words): sacrificed on Day 4; also recorded: found dead on Day 17; also recorded: found dead on Day 95 | Median time for tumors to reach 1000 mm^3 (786-O cells): 119 days | Tumors smaller than those in vehicle-treated mice (786-O cells): 83% | Tumor size (mean±SD) (786-O cells; Day 119, 75 mg/kg QD, PO): 709938 mm^3

NC(Cn1ccc(=O)c(O)c1)C(=O)O (centres unmarked) [mimosine]
Effect on VEGF production [5]: does not reduce VEGF production

O=C(Oc1ccc(Cl)cc1)N1CCc2c([nH]c3ccc(Cl)cc23)[C@@H]1c1ccc(OC2CCN(C[C@H](O)CO)CC2)cc1 [Compound 1704]
EC50 [1]: 8 to 40 nM

O=C(Oc1ccc(Cl)cc1)N1CCc2c([nH]c3ccc(Cl)cc23)C1c1ccc(OCCCn2nccn2)cc1 (centres unmarked) [Compound 1016]
EC50 [1]: > 1000 nM

CS(=O)(=O)CCCOc1ccc(C2c3[nH]c4ccc(Cl)cc4c3CCN2C(=O)Oc2ccc(Cl)cc2)cc1 (centres unmarked) [Compound 1551]
EC50 [1]: < 8 nM

CCOC(=O)N1CCc2c([nH]c3ccc(Cl)cc23)[C@@H]1c1ccc(Oc2ncc(CN3CCN(C)CC3)s2)cc1 [Compound 1657]
EC50 [1]: < 8 nM

CC#CCOC(=O)N1CCc2c([nH]c3cc(F)ccc23)C1c1ccc(C)cc1 (centres unmarked) [Compound 1456]
EC50 [1]: > 1000 nM

Clc1ccc2[nH]c3c(c2c1)CCN(c1ncccn1)C3c1ccc(OCCCn2cncn2)cc1 (centres unmarked) [Compound 1201]
EC50 [1]: < 8 nM

CCOC(=O)N1CCc2c([nH]c3ccc(Cl)cc23)C1c1ccc(OCC(O)CNC(=O)c2ccncc2)cc1 (centres unmarked) [Compound 1467]
EC50 [1]: < 8 nM

CC1(C)OCC(COc2ccc([C@H]3c4[nH]c5ccc(Cl)cc5c4CCN3c3ncccn3)cc2)CO1 [Compound 1242]
EC50 [1]: < 8 nM

COc1cc(C2c3[nH]c4ccc(Cl)cc4c3CCN2C(=O)Oc2ccc(F)cc2)ccc1OCCCn1ccnn1 (centres unmarked) [Compound 1147]
EC50 [1]: 8 to 40 nM

CCOC(=O)NC[C@@H](O)COc1ccc([C@H]2c3[nH]c4ccc(Cl)cc4c3CCN2C(=O)OCC)cc1 [Compound 1650]
EC50 [1]: < 8 nM

CC1(COc2ccc([C@H]3c4[nH]c5ccc(Cl)cc5c4CCN3C(=O)OCC3CC3)cc2)COC(C)(C)OC1 [Compound 1317]
EC50 [1]: < 8 nM

CCC(CO)(CO)COc1ccc([C@H]2c3[nH]c4ccc(Cl)cc4c3CCN2C(=O)OCC2CCCC2)cc1 [Compound 1687]
EC50 [1]: < 8 nM
